Earlier results as cited in patent US5659037A, “Process for preparing chiral tetracyclic dopaminergic compounds” (Abbott Laboratories, priority 1995, dated 1997).

Legend:
[1] = system: dopamine D1; conditions: Nichols U.S. Pat. No. 5,047,536; WO 93/24462; Brewster et al. (1990)
[2] = Seeman, Pharmacol. Rev. 32:2:229 (1980)
[3] = system: adenylate cyclase; conditions: Knoerzer et al., J. Med. Chem., 37:2453-60 (1994)

Row | Structure (SMILES) | dopamine D1 agonist activity [1] | further results
1 | Cc1ccc2c(c1)[C@@H]1c3cc(O)c(O)cc3CC[C@H]1NC2 (relative stereo) [2-methyl derivative] | potent and selective dopamine D1 agonists | 
2 | NC1CCc2cc(O)c(O)cc2C1 (stereo not shown) [ADTN, 2-amino-6,7-dihydroxy-1,2,3,4-tetrahydronaphthalene] |  | dopamine agonist activity [2]: greatest activity in its chiral (R)-(+)-isomeric form
3 | Oc1cc2c(cc1O)[C@@H]1c3ccccc3CN[C@H]1CC2 (relative stereo) [dihydrexidine, trans-10,11-dihydroxy-5,6,6a,7,8,12b-hexahydrobenzo[a]phenanthridine] | potent and selective dopamine D1 agonists | 
4 | Oc1cc2c(cc1O)[C@@H]1c3ccccc3CN[C@H]1CC2 [6aS,12bR-(-)-isomer] |  | activity in an adenylate cyclase assay [3]: inactive
